Test [1] relates to hematopoietic cells. In words: CFC/CFU assay: percent transduction analysed in single colonies. It counts as cell-based. The procedure: “Transduction efficiency” refers to the percentage of cells transduced with at least one provirus copy. For example if 1×10^6 cells are exposed to a virus and 0.5×10^6 cells are determined to have a least one copy of a virus in their genome, then the transduction efficiency is 50%. An illustrative method for determining transduction efficiency is flow cytometry.
As used herein, “CFC” refers to colony forming cells. The colony forming cell (CFC) assay is used to study the proliferation and differentiation pattern of hematopoietic progenitors by their ability to form colonies in a semisolid medium. The number and the morphology of the colonies formed by a fixed number of input cells provide preliminary information about the ability of progenitors to differentiate and proliferate. Exemplary assays are provided in Sarma et al. Colony forming cell (CFC) assay for human hematopoietic cells. J Vis Exp. 2010 Dec. 18; (46). […]
(§1) In another experiment, cells were transduced with either 1×10^7 TU/mL or 1×10^8 TU/mL of lentiviral vector in liquid culture in the presence of PGE2, and assayed for VCN determination after 14 days in liquid culture (FIG. 2B). […] A colony forming units (CFUs) assay was performed with transduced cells (FIG. 3A, CFCs=colony-forming cells), and VCN and percent (%) transduction were analyzed in single colonies (FIGS. 3B and 3C). […]

Test [2] has as its system hematopoietic cells. In words: VCN determination after 14 days in liquid culture of cells transduced with lentiviral vector. It counts as cell-based. The following applies: 4 μg/mL protamine sulfate in media, 14 days liquid culture. The procedure: “Vector copy number” or “VCN” refers to the number of copies of vector in a sample divided by the number of cells. Generally the number of copies of vector is determined by quantitative polymerase chain reaction (qPCR) using a probe against the Psi sequence of the integrated provirus, and the number of cells is determined by qPCR using a probe against a human housekeeping gene for which there will be two copies per cell (one per chromosome).
An illustrative protocol for transduction of hematopoietic cells with lentiviral vectors as performed in the examples that follow is provided in FIG. 1, although in various experiments described in the examples, the transduction media included no TE, a single TE, or various combinations of TEs. Pre-stimulation included culturing the cells on plates coated with 2 ug/cm^2 RetroNectin™ (RN). […]
as §1

In another test the test system is CD34+ cells. Conditions: ex vivo culture of CD34+ cells; Heffner et al. 2018; cited from earlier work.

The values below come from patent US12685751B2, “Methods for gene modification of hematopoietic cells” (Centro de Investigaciones Energéticas, Medioambientales y …, priority 2018, dated 2026).

With `CCCCC(C)(C)[C@H](O)/C=C/[C@H]1[C@H](O)CC(=O)[C@@H]1C/C=C\CCCC(=O)O`, the “percent (%) transduction, cells transduced” value was “up to 75%” in the test on hematopoietic cells [1] (highest tested concentration of PGE2, single colonies, FIG. 3C) and “up to 75%” in the test with hematopoietic cells [1] (highest tested concentration, Example 2 (poloxamer F108 / LentiBOOST), FIG. 5C). Moreover, the “transduction efficiency as determined by VCN/cell” value with hematopoietic cells [2] (1×10^7 or 1×10^8 TU/mL lentiviral vector, FIG. 2B) is recorded as “increased transduction efficiency”. Further, the “transduction efficiency as measured by vector copy numbers/cell” value in the test with hematopoietic cells [2] (PGE2 10, 30 or 50 μg/mL, 2.5×10^7 or 5×10^7 TU/mL VSVG-pseudotyped GFP LV, FIG. 2A) is “increase transduction efficiency”. In addition, the “level of lentiviral transgene delivery” value in the test on CD34+ cells is reported as “increase the level of lentiviral transgene delivery”.
